Reference: PMC10653909, “PlzD modifies Vibrio vulnificus foraging behavior and virulence in response to elevated c-di-GMP” (mBio, 2023)

Target: T1, PlzD
T1 construct: His-tagged PlzD (aot11_00285, strain ATCC27562), expressed in E. coli BL21(DE3)
Test: micro-equilibrium dialysis with UV absorbance at […] nm, purified protein
Format: binding, Vibrio vulnificus

## Nc1nc2c(ncn2[C@@H]2O[C@@H]3COP(=O)(O)O[C@H]4[C@@H](O)[C@H](n5cnc6c(=O)[nH]c(N)nc65)O[C@@H]4COP(=O)(O)O[C@H]3[C@H]2O)c(=O)[nH]1 [c-di-GMP]
  Kd: 3.9 µM
